From ChEMBL document CHEMBL3102805, “Truncated Orexin Peptides: Structure-Activity Relationship Studies” (ACS Med Chem Lett, 2013)
Activity calls are given as the source filed them. The rule behind the calls is not given here. Where a SMILES comes first, the peptide text is derived from it.

Key:
Format in all cases: functional, cell-based
[1] = molecular target: T1, Orexin receptor type 2 (Homo sapiens) (UniProt O43614); experiment: Agonist activity at human OX2 receptor overexpressed in CHO-RD-HGA16 cells assessed as calcium mobilization at 10 uM after 15 mins by fluorescence assay relative to control
T1 sequence (whole entry): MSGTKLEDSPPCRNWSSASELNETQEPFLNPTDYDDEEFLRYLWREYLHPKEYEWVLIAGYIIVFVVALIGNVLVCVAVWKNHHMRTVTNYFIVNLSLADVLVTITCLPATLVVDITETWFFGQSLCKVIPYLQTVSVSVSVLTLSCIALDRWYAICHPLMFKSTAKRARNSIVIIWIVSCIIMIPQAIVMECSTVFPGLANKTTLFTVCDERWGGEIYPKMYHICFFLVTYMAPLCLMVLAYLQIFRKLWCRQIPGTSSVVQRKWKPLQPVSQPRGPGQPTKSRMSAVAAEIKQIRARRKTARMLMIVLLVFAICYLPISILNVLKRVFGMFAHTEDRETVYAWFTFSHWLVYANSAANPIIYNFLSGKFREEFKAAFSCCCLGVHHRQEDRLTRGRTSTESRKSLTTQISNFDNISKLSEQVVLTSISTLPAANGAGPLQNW

[2] = molecular target: T2, Orexin/Hypocretin receptor type 1 (Homo sapiens) (UniProt O43613); experiment: Agonist activity at human OX1 receptor overexpressed in CHO-RD-HGA16 cells assessed as calcium mobilization at 10 uM after 15 mins by fluorescence assay relative to control
T2 sequence (whole entry): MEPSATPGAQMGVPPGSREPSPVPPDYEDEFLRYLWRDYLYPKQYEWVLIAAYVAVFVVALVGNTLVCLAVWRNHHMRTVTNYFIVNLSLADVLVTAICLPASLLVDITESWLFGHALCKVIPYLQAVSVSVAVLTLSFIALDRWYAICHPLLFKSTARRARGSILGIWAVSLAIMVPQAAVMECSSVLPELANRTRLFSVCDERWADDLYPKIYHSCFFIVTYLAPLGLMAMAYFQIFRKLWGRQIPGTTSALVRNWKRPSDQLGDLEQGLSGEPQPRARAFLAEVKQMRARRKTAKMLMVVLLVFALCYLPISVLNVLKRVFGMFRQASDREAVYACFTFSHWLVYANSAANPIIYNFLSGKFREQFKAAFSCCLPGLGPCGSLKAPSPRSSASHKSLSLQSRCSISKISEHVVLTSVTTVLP

[3] = molecular target: T3, Orexin receptor type 2 (Homo sapiens, UniProt O43614); experiment: Agonist activity at human OX2 receptor overexpressed in CHO-RD-HGA16 cells assessed as calcium mobilization after 15 mins by fluorescence assay
T3 sequence (O43614 whole entry): T1 sequence (whole entry)

Row | Activity [1] | Activity [2] | Percent activation at 10 uM [1] [%] | EC50 [3] [nM] | Calcium response at 10 uM relative to control [2] [%] | Compound
1 | inactive | inactive |  |  |  | CC[C@@H](C)[C@@H](NC(=O)CNC(=O)[C@H](C)NC(=O)[C@H](C)NC(=O)[C@H](Cc1cnc[nH]1)NC(=O)[C@H](CC(N)=O)NC(=O)CNC(=O)[C@H](C)NC(=O)CNC(=O)[C@H](Cc1cnc[nH]1)NC(=O)[C@H](CC(C)C)NC(=O)[C@H](CC(C)C)NC(=O)[C@H](CCC(=O)O)NC(=O)[C@@H](N)Cc1ccc(O)cc1)C(=O)N[C@@H](CC(C)C)C(=O)N[C@H](C(=O)N[C@@H](CC(C)C)C(N)=O)[C@@H](C)O
2 |  | inactive | < 50 |  |  | CC[C@H](C)[C@H](NC(=O)CNC(=O)[C@@H](C)NC(=O)[C@H](C)NC(=O)[C@H](Cc1cnc[nH]1)NC(=O)[C@H](CC(N)=O)NC(=O)CNC(=O)[C@H](C)NC(=O)CNC(=O)[C@H](Cc1cnc[nH]1)NC(=O)[C@H](CC(C)C)NC(=O)[C@H](CC(C)C)NC(=O)[C@H](CCC(=O)O)NC(=O)[C@@H](N)Cc1ccc(O)cc1)C(=O)N[C@@H](CC(C)C)C(=O)N[C@H](C(=O)N[C@@H](CC(C)C)C(N)=O)[C@@H](C)O
3 |  | inactive | < 50 |  |  | CC[C@H](C)[C@H](NC(=O)CNC(=O)[C@H](C)NC(=O)[C@H](C)NC(=O)[C@H](Cc1cnc[nH]1)NC(=O)[C@@H](CC(N)=O)NC(=O)CNC(=O)[C@H](C)NC(=O)CNC(=O)[C@H](Cc1cnc[nH]1)NC(=O)[C@H](CC(C)C)NC(=O)[C@H](CC(C)C)NC(=O)[C@H](CCC(=O)O)NC(=O)[C@@H](N)Cc1ccc(O)cc1)C(=O)N[C@@H](CC(C)C)C(=O)N[C@H](C(=O)N[C@@H](CC(C)C)C(N)=O)[C@@H](C)O
4 | inactive | inactive |  |  |  | CC[C@H](C)[C@H](NC(=O)CNC(=O)[C@H](C)NC(=O)[C@H](C)NC(=O)[C@H](Cc1cnc[nH]1)NC(=O)[C@H](CC(N)=O)NC(=O)CNC(=O)[C@H](C)NC(=O)CNC(=O)[C@H](Cc1cnc[nH]1)NC(=O)[C@H](CC(C)C)NC(=O)[C@H](CC(C)C)NC(=O)[C@H](CCC(=O)O)NC(=O)[C@@H](N)Cc1ccc(O)cc1)C(=O)N[C@@H](CC(C)C)C(=O)N[C@@H](C(=O)N[C@@H](CC(C)C)C(N)=O)[C@H](C)O
5 | inactive | inactive |  |  |  | CC[C@H](C)[C@H](NC(=O)CNC(=O)[C@H](C)NC(=O)[C@H](C)NC(=O)[C@H](Cc1cnc[nH]1)NC(=O)[C@H](CC(N)=O)NC(=O)CNC(=O)[C@H](C)NC(=O)CNC(=O)[C@H](Cc1cnc[nH]1)NC(=O)[C@H](CC(C)C)NC(=O)[C@H](CC(C)C)NC(=O)[C@H](CCC(=O)O)NC(=O)[C@@H](N)Cc1ccc(O)cc1)C(=O)N[C@@H](CC(C)C)C(=O)N[C@H](C(=O)N[C@H](CC(C)C)C(N)=O)[C@@H](C)O
6 |  | inactive | < 50 |  |  | CC[C@H](C)[C@H](NC(=O)CNC(=O)[C@H](C)NC(=O)[C@H](C)NC(=O)[C@H](Cc1cnc[nH]1)NC(=O)[C@H](CC(N)=O)NC(=O)CNC(=O)[C@H](C)NC(=O)CNC(=O)[C@H](Cc1cnc[nH]1)NC(=O)[C@H](CC(C)C)NC(=O)[C@H](CC(C)C)NC(=O)[C@H](CCC(=O)O)NC(=O)[C@@H](N)Cc1ccc(O)cc1)C(=O)N[C@H](CC(C)C)C(=O)N[C@H](C(=O)N[C@@H](CC(C)C)C(N)=O)[C@@H](C)O
7 |  |  |  | 1040 | < 50 | CC[C@H](C)[C@H](NC(=O)CNC(=O)[C@H](C)NC(=O)[C@H](C)NC(=O)[C@H](Cc1cnc[nH]1)NC(=O)[C@H](CC(N)=O)NC(=O)CNC(=O)[C@H](CO)NC(=O)[C@H](C)NC(=O)[C@H](CCC(N)=O)NC(=O)[C@H](CC(C)C)NC(=O)[C@H](CC(C)C)NC(=O)[C@H](CCCNC(=N)N)NC(=O)[C@@H](N)CCC(N)=O)C(=O)N[C@@H](CC(C)C)C(=O)N[C@H](C(=O)N[C@@H](CCSC)C(N)=O)[C@@H](C)O (H-QRLLQASGNHAAGILTM-NH2)
8 |  |  | < 50 |  | < 50 | CC[C@H](C)[C@H](NC(=O)[C@H](C)NC(=O)[C@H](C)NC(=O)[C@H](C)NC(=O)[C@H](Cc1cnc[nH]1)NC(=O)[C@H](CC(N)=O)NC(=O)CNC(=O)[C@H](C)NC(=O)CNC(=O)[C@H](Cc1cnc[nH]1)NC(=O)[C@H](CC(C)C)NC(=O)[C@H](CC(C)C)NC(=O)[C@H](CCC(=O)O)NC(=O)[C@@H](N)Cc1ccc(O)cc1)C(=O)N[C@@H](CC(C)C)C(=O)N[C@H](C(=O)N[C@@H](CC(C)C)C(N)=O)[C@@H](C)O (H-YELLHGAGNHAAAILTL-NH2)
9 | inactive | inactive |  |  |  | CC(C)C[C@H](NC(=O)[C@@H](NC(=O)[C@H](CC(C)C)NC(=O)[C@H](C)NC(=O)CNC(=O)[C@H](C)NC(=O)[C@H](C)NC(=O)[C@H](Cc1cnc[nH]1)NC(=O)[C@H](CC(N)=O)NC(=O)CNC(=O)[C@H](C)NC(=O)CNC(=O)[C@H](Cc1cnc[nH]1)NC(=O)[C@H](CC(C)C)NC(=O)[C@H](CC(C)C)NC(=O)[C@H](CCC(=O)O)NC(=O)[C@@H](N)Cc1ccc(O)cc1)[C@@H](C)O)C(N)=O (H-YELLHGAGNHAAGALTL-NH2)
10 | inactive | inactive |  |  |  | CC[C@H](C)[C@H](NC(=O)CNC(=O)[C@H](C)NC(=O)[C@H](C)NC(=O)[C@H](Cc1cnc[nH]1)NC(=O)[C@H](CC(N)=O)NC(=O)CNC(=O)[C@H](C)NC(=O)CNC(=O)[C@H](Cc1cnc[nH]1)NC(=O)[C@H](CC(C)C)NC(=O)[C@H](CC(C)C)NC(=O)[C@H](CCC(=O)O)NC(=O)[C@@H](N)Cc1ccc(O)cc1)C(=O)N[C@@H](C)C(=O)N[C@H](C(=O)N[C@@H](CC(C)C)C(N)=O)[C@@H](C)O (H-YELLHGAGNHAAGIATL-NH2)
11 |  |  | < 50 |  | < 50 | CC[C@H](C)[C@H](NC(=O)CNC(=O)[C@H](C)NC(=O)[C@H](C)NC(=O)[C@H](Cc1cnc[nH]1)NC(=O)[C@H](CC(N)=O)NC(=O)CNC(=O)[C@H](C)NC(=O)CNC(=O)[C@H](Cc1cnc[nH]1)NC(=O)[C@H](CC(C)C)NC(=O)[C@H](CC(C)C)NC(=O)[C@H](CCC(=O)O)NC(=O)[C@@H](N)Cc1ccc(O)cc1)C(=O)N[C@@H](CC(C)C)C(=O)N[C@@H](C)C(=O)N[C@@H](CC(C)C)C(N)=O (H-YELLHGAGNHAAGILAL-NH2)
12 | inactive |  |  |  | < 50 | CC[C@H](C)[C@H](NC(=O)CNC(=O)[C@H](C)NC(=O)[C@H](C)NC(=O)[C@H](Cc1cnc[nH]1)NC(=O)[C@H](CC(N)=O)NC(=O)CNC(=O)[C@H](C)NC(=O)CNC(=O)[C@H](Cc1cnc[nH]1)NC(=O)[C@H](CC(C)C)NC(=O)[C@H](CC(C)C)NC(=O)[C@H](CCC(=O)O)NC(=O)[C@@H](N)Cc1ccc(O)cc1)C(=O)N[C@@H](CC(C)C)C(=O)N[C@H](C(=O)N[C@@H](C)C(N)=O)[C@@H](C)O (H-YELLHGAGNHAAGILTA-NH2)
